{"source": "patent US20070135470A1", "about": "“Utilization of vinpocetine to avoid complications in particular those associated to hearing which occur with epilepsy, and treatment thereof” (UNIVERSIDAD NACIONAL AUTONOMA DE MEXICO, priority 2003, published 2007)", "tested_on": "epilepsy induced by PTZ in guinea pigs", "experiment": "ABR wave parameters (amplitude, latency) in PTZ-induced epilepsy", "format": "in vivo, guinea pig", "conditions": "100 dB", "protocol": "Experiments were performed in pigmented adult male guinea pigs initially weighing 349±38 g. ABRs recordings were used to evaluate the hearing status of each animal and EEG recordings to evaluate changes in cortical excitability. The ABR and EEG recordings were obtained following a method that we have previously reported (Nekrassov and Sitges, 2003). The Institutional Animal Use and Care Committee approved all experimental procedures.\nThree types of recordings were performed in the anaesthetized animals, namely the ABR recordings elicited by a stimulus of high intensity (100 dB), the ABR recordings for determination of the auditory threshold and the EEG recordings.\nDetermination of ABR wave parameters. The latency and amplitude of each wave component of the ABR elicited by a stimulus of 100 dB with pure tone frequencies of 4 and 8 kHz was measured in all the ABR recordings obtained under the different experimental conditions at the specified times. The latency of each ABR wave (in ms) refers to the time interval between the onset of the auditory stimulus and the positive peak of the wave. The onset of the stimulus is indicated by the vertical arrow at the bottom of the recordings on FIG. 1. The peak amplitude (in μV) of each wave of the ABR is the difference between the positive peak of the wave and the reference baseline (trace between the stimulus and the appearance of the first ABR wave on FIG. 1).\nStudent's t-test was used for the evaluation of the differences between results obtained before and at the specified times after the injection of the convulsing agents. The criterion for statistical significance for all measures was P≦0.05. All data are expressed as means±standard error of the mean. In figures and tables the symbol * is used for indicating statistic significant differences.\nEight male guinea pigs were entered into this study. PTZ was dissolved in saline and vinpocetine in a saline acidified (with HCl) adjusted to pH 4 (with NaOH). Four hours after injecting guinea pigs with vehicle (acidified saline used to dissolve vinpocetine) the animals were anaesthetized and a first set of ABR and EEG recordings was taken before the injection (i.p) of the convulsing agent, PTZ. The animals were injected with PTZ (100 mg/kg) and about 2 min after injecting PTZ (ictal period) the EEG recording was taken. Then the other series of ABR and EEG recordings were taken at specific times within the post-ictal period. After two weeks the same series of recordings was taken but instead vehicle the animals were injected with vinpocetine (2 mg/kg) 4 hours before the injection of PTZ.", "data": [{"smiles": "CCOC(=O)C1=C[C@]2(CC)CCCN3CCc4c(n1c1ccccc41)[C@@H]32", "note": "[Vinpocetine, ethyl apovincamine-22-oate]", "values": [{"measurement": "effect on the increase in latencies of the ABR waves P2, P3 and P4 produced by PTZ", "setting": "4 and 8 kHz, vinpocetine 2 mg/kg 4 h before PTZ, FIG. 2", "result": "inhibits the increase"}, {"measurement": "P4 wave peak amplitude of the ABR", "setting": "4 kHz, 10 min after PTZ 100 mg/kg i.p., vinpocetine 2 mg/kg or vehicle 4 h before PTZ", "result": "2.55 ± 0.3", "unit": "μV"}, {"measurement": "P4 wave peak amplitude of the ABR", "setting": "4 kHz, 20 min after PTZ 100 mg/kg i.p., vinpocetine 2 mg/kg or vehicle 4 h before PTZ", "result": "2.52 ± 0.2", "unit": "μV"}, {"measurement": "P4 wave peak amplitude of the ABR", "setting": "4 kHz, 30 min after PTZ 100 mg/kg i.p., vinpocetine 2 mg/kg or vehicle 4 h before PTZ", "result": "2.55 ± 0.2", "unit": "μV"}, {"measurement": "P4 wave peak amplitude of the ABR", "setting": "4 kHz, 50 min after PTZ 100 mg/kg i.p., vinpocetine 2 mg/kg or vehicle 4 h before PTZ", "result": "2.52 ± 0.2", "unit": "μV"}, {"measurement": "P4 wave peak amplitude of the ABR", "setting": "4 kHz, before PTZ injection, 4 h after vinpocetine 2 mg/kg, mean±SEM, 8 animals", "result": "2.82 ± 0.3", "unit": "μV"}, {"measurement": "P4 wave peak amplitude of the ABR", "setting": "8 kHz, 10 min after PTZ 100 mg/kg i.p., vinpocetine 2 mg/kg or vehicle 4 h before PTZ", "result": "2.56 ± 0.1", "unit": "μV"}, {"measurement": "P4 wave peak amplitude of the ABR", "setting": "8 kHz, 20 min after PTZ 100 mg/kg i.p., vinpocetine 2 mg/kg or vehicle 4 h before PTZ", "result": "2.71 ± 0.2", "unit": "μV"}, {"measurement": "P4 wave peak amplitude of the ABR", "setting": "8 kHz, 30 min after PTZ 100 mg/kg i.p., vinpocetine 2 mg/kg or vehicle 4 h before PTZ", "result": "2.55 ± 0.2", "unit": "μV"}, {"measurement": "P4 wave peak amplitude of the ABR", "setting": "8 kHz, 50 min after PTZ 100 mg/kg i.p., vinpocetine 2 mg/kg or vehicle 4 h before PTZ", "result": "2.56 ± 0.1", "unit": "μV"}, {"measurement": "P4 wave peak amplitude of the ABR", "setting": "8 kHz, before PTZ injection, 4 h after vinpocetine 2 mg/kg, mean±SEM, 8 animals", "result": "2.69 ± 0.1", "unit": "μV"}]}]}
